For one series, the system named is shocked rodents. Nature of the series: Hemorrhagic shock model, low volume resuscitation with gluconate (Example 4). In kind it is in vivo. How it is done:
Gluconate was administered in the organ protectant solution (e.g., a low volume resuscitation (LVR) solution with cell impermeants according to the present invention) in order to achieve a theoretical gluconate concentration of about 60 mM in the extracellular fluid compartment (subsequent experiments have shown that about 100 mM is probably optimal). The idea of low volume resuscitation is to give the shocked patient small volumes of intravenous fluids to prolong the time on the field to allow for rescue and transport to a forward hospital where more definitive resuscitation can occur (due to fewer resource limitations). The purpose of the addition of the cell impermeants to the LVR solution (usually saline) was to increase this “down time” further, effectively increasing the tolerance to the low flow state and making it more likely that the patient can survive the wait to the hospital. Essentially, the objective is to increase the “Golden Hour”.
In shock experiments, the time that the control animals could remain in the low volume state (after LVR administration) was 64 minutes. […] This means that these subjects were able to stay safely in the low volume state for much longer periods. In practical terms, they can wait longer for transport and full resuscitation, yet presumably have a higher chance of survival.

A further series concerns rodent capillaries. Also on record: species or system rats. As to conditions: rat, in vivo. As for the experimental part:
FIG. 10A-D. A) Diagram showing the shock, resuscitation, and recovery protocol used for these studies. The low volume resuscitation (LVR) time is the time from the start of the low volume resuscitation (after the lactate during hemorrhagic shock reaches 9-10 mM) until the time after the LVR infusion when the lactate rises back up to 9-10 mM again. This immediately precedes full resuscitation. The LVR time is a measure of the tolerance to the low volume state and is a function of the microcirculatory effectiveness since it is dependent on the rate of change of the plasma lactate. […] The numbers on the x-axis are the corresponding lactate concentrations in the plasma at the end of the LVR period. Most are close to 10 mM because that was the definition of the end of the LVR period. […] D) The oncotic reflection coefficient (σd) for PEG-20k was measured in six rats to determine the impermeant and the oncotic effects of this molecule in both the mesenteric vascular bed and the thoracic bed. FITC-labeled PEG-20k was used as a tracer molecule and the reflection coefficient was determined by measuring the lymph (L) to plasma (P) concentrations of FITC-PEG after an IV injection of the tracer under conditions of high lymph flow induced by volume loading with I.V. saline infusions (0.25 ml/min). […] FITC-labelled PEG-20k was measured by excitation-emission spectrofluorometry. […]

For series [1], the system named is juvenile swine in hemorrhagic shock. An excerpt:
Saline control • b. […] Results

Where [2] appears, read: 24 hours after shock and resuscitation, vs controls.

These results are taken from patent publication US10300029B2, “Organ protection solutions and method of use” (VIRGINIA COMMONWEALTH UNIVERSITY, priority 2011, dated 2019).

Description for normal pig blood: The (A) PT-INR and (B) aPTT effects were determined in both normal pig blood after ex-vivo mixing with PEG-20k LVR solutions (10% dilution) or with a saline control, also at a 10% solution, and after the end of the LVR period in pigs given PEG-20k based LVR solutions.
Juvenile swine (35-40 kn) were anesthetized with Ketamine/Xylazine, and propofol induction followed by isofluorane inhalation anesthesia maintenance (1-2%). A swan-Ganz catheter was introduced into the pulmonary artery via a cut down of the right jugular vein for the continuous measurement of cardiac output, pulmonary artery pressures, and sVO2 (mixed venous O2 saturation) by an optical sensor on the PA catheter. Blood pressure and arterial blood gases were measured by a line in the femoral artery. A line in the carotid artery and contralateral jugular vein was used for bleeding and resuscitation, respectively. […]
Finally, coagulation was determined in both normal pig blood after ex-vivo mixing with PEG-20k LVR solutions (10% dilution) or with a saline control, also at a 10% solution, and after the end of the LVR period in pigs given PEG-20k based LVR solutions.

On to `O=C(O)[C@H](O)[C@@H](O)[C@H](O)[C@H](O)CO` [gluconate], for which, in the series with shocked rodents (setting [2]), the albumin entry is recorded as “higher”, the liver enzymes entry is listed as “lower” and the metabolic acidosis result was “less”. In addition, in the series with shocked rodents (gluconate added to LVR solution, theoretical about 60 mM in extracellular fluid), the LVR time result is “over 106 minutes”.

Take polyethylene glycol 20,000 [PEG-20k]: in the series with rodent capillaries, the “capillary oncotic reflection coefficient” value was “about 0.65”. For the same compound, the “coagulation (PT-INR, aPTT), in-vivo” value in series [1] is on record as “not altered”. Besides, in the series with normal pig blood, the “coagulation (PT-INR, aPTT), ex-vivo mixing test” value is recorded as “not altered”.
